According to article PMC9293210, “Molecular Recognition of Natural and Non‐Natural Substrates by Cellodextrin Phosphorylase from Ruminiclostridium Thermocellum Investigated by NMR Spectroscopy” (Chemistry (Weinheim an Der Bergstrasse, Germany), 2021):
Blank lines part the entries; values can stand above or below the compound they belong to.

Columns and labels:
[1] = target: T1, cellodextrin phosphorylase (CDP) (Acetivibrio thermocellus, UniProt Q93HT8); assay: STD NMR titration (STD-AF of H4beta, […] s saturation); type: binding; conditions: [D11]Tris 25 mM pH 7.4, NaCl 100 mM; no phosphate; apparent
T1 construct: gene cdp-ym4; 1009 amino acids, 114 kDa per monomer, homodimer
T1 sequence (Q93HT8 1-984): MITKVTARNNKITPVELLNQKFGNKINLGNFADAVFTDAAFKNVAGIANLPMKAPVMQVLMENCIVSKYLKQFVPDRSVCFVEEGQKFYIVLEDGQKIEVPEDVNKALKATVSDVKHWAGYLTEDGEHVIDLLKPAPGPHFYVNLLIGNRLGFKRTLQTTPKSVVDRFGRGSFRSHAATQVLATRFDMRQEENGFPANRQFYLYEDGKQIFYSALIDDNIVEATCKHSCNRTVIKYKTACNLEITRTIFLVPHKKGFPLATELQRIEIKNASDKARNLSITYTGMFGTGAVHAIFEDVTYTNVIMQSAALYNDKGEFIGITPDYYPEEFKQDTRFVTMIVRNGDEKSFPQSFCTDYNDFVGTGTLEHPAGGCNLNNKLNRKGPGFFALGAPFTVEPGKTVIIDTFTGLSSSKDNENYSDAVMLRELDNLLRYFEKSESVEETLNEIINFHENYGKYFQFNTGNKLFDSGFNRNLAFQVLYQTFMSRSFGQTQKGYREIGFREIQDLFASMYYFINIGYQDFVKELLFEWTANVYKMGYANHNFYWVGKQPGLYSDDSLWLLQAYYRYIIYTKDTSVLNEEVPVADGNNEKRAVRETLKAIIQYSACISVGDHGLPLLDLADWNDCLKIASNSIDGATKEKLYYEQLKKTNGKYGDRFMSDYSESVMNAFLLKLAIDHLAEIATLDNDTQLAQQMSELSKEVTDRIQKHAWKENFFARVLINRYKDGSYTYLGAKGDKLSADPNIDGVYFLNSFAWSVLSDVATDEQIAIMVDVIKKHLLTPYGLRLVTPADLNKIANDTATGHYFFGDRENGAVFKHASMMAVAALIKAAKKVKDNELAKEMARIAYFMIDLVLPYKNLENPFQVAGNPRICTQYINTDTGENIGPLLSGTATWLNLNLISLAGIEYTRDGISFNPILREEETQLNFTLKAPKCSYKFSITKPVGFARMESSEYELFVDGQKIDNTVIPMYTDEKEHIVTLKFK

[2] = target: T1, cellodextrin phosphorylase (CDP); assay: STD NMR, binding epitope mapping; conditions: [D11]Tris 25 mM pH 7.4, NaCl 100 mM, 278 K; 3 mM ligand, 15 uM binding sites; acceptor site
[3] = target: T1, cellodextrin phosphorylase (CDP); assay: STD NMR, binding epitope mapping; tr-NOESY; conditions: [D11]Tris 25 mM pH 7.4, NaCl 100 mM, 278 K (STD); tr-NOESY 290 K; 3 mM ligand, 15 uM binding sites (STD); acceptor site

Kd [1]: 2.2 mM
Structure (SMILES): OC[C@H]1O[C@@H](O[C@H]2[C@H](O)[C@@H](O)C(O)O[C@@H]2CO)[C@H](O)[C@@H](O)[C@@H]1O (stereo partly drawn) [D-cellobiose]

Structure (SMILES): OC[C@H]1O[C@@H](O[C@H]2[C@H](O)[C@@H](O)[C@H](O[C@H]3[C@H](O)[C@@H](O)C(O)O[C@@H]3CO)O[C@@H]2CO)[C@H](O)[C@@H](O)[C@@H]1O (stereo partly drawn) [D-cellotriose]
STD NMR, binding epitope mapping [2]: D‐cellotriose showed contacts for both the reducing α‐ and β‐glucose rings

Structure (SMILES): OC[C@H]1O[C@@H](O[C@H]2[C@H](O)[C@@H](CO)OC(O)[C@@H]2O)[C@H](O)[C@@H](O)[C@@H]1O (stereo partly drawn) [D-laminaribiose]
STD NMR, binding epitope mapping; tr-NOESY [3]: H2 of the non‐reducing glucose ring received the largest saturation transfer
